According to US11142530B2, “Deep-sea fungus-derived anthraquinone compound and use thereof in preparing anti-allergic drugs” (Third Institute of Oceanography, Ministry of Natural …, priority 2019, dated 2021):
Where two headings read alike, the source gives them in different places.

Test system: RBL-2H3 cells
Experiment: IgE-mediated RBL-2H3 cell degranulation model (β-hexosaminidase release), in vitro anti-allergic activity test
Assay type: cell-based
Conditions: for Degranulation efficiency (%): RBL-2H3 cells, anti-DNP-IgE sensitized, DNP-BSA stimulated
Description: Currently available mast cell lines are not suitable for in vitro subculturing, and thus it is difficult to obtain a large number of homogeneous cells for experimental research. The RBL-2H3 cell line is similar to mast cells in cell structure and degranulation mechanism, and more importantly, it is possible to realize a stable subculturing of the line. Thus, the RBL-2H3 cell line is usually used as an alternative model of mast cells in the studies on mast cell functions and further researches of allergic diseases.
In the present embodiment, an IgE-mediated RBL-2H3 cell model was employed to measure the degranulation efficiency of sensitized cells, followed by a calculation to obtain the inhibitory of the compound against the cell degranulation and to further obtain the anti-allergic activity of the compound.
This embodiment was conducted with the following four groups:
(1) negative control group (non-activated group);
(2) blank control group (DNP-BSA-activated group);
(3) positive control group (loratadine group); and
(4) compound group (the compound obtained in step (5) in Embodiment 1).
This embodiment was conducted as follows:
(1) Sensitizing the cells: The RBL-2H3 cells were collected with trypsinization, and added into 96-well plates, 100 μL in each well, followed by the addition of anti-DNP-IgE to a final concentration of 1 μg/mL to sensitize the cells, and incubated in an incubator overnight (37° C., 5% CO2).
(2) Pre-protection of the cells: In the negative control group, 5, μL of PBS and 95 μL of Tyrode's buffer solution were added to each sample. In the blank control group, 5 μL of DNP-BSA and 95 μL of Tyrode's buffer solution were added to each sample. In the positive control group, 5 μL of loratadine (of various concentrations) and 95 μL of Tyrode's buffer solution were added to each sample. In the compound group, 5 μL of the compound solution (in PBS, with a final concentration of 1.25, 0. 625, 0.3125, 0.15625, 0.078125, or 0.0390625 μg/mL) and 95 μL of Tyrode's buffer solution were added to each sample. After the addition of above reagents, 95 μL of the cells were then added to culture plates, and incubated for 1 hour.
(3) Stimulating the cells: In the negative control group, 5 μL of PBS was added to each sample. In the other three groups, 5 μL of DNP-BSA was added to a final concentration of 1 μg/mL to stimulate the RBL-2H3 cells, and incubated for 1 hour.
(4) Disintegration of the cells: The culture supernatants were collected, and then the Tyrode's buffer solution (containing 0.1% of Triton X-100) was added to the culture plates to disintegrate the cells so as to obtain lysate solutions.
(5) β-hexosaminidase activity measurement: The supernatants and the lysate solutions were added to 96-well plates for fluorescent assays, 25 μL in each well, followed by the addition of 100 μL of 1.2 mM 4-methylumbelliferyl-N-acetyl-β-d-glucosaminide to allow reaction at 37° C. for 30 minutes. Then the fluorescence (excitation wavelength: 360 nm, emission wavelength: 450 nm) of the solution in each well was measured using a microplate reader.
(6) Calculation of degranulation efficiency:
Degranulation efficiency was calculated through the following expression:
wherein, FS represent the fluorescence of supernatant, and FL represents the fluorescence of lysate solution.
(7) Calculation of inhibitory rate on allergy
Inhibitory rate was calculated with the following expression:
wherein DEB represents the degranulation efficiency of blank control group, DEC represents the degranulation efficiency of compound group and DEN represents the degranulation efficiency of negative control group.

[1] = Rattus norvegicus, RBL-2H3, read-out: Inhibitory rate (%)

For `CCOC(=O)N1CCC(=C2c3ccc(Cl)cc3CCc3cccnc32)CC1` [loratadine, reference compound], the IC50 (Rattus norvegicus, concentration of the compound when the inhibitory rate is 50%, RBL-2H3 degranulation, read-out: IC50) was 91.6 µM.

With `COc1cc(O)cc2c1C(=O)c1c(cc3c(c1O)C1C=COC1O3)C2=O` (stereo not drawn) [Compound] the “inhibitory effect on mast cell degranulation” value (IgE-mediated RBL-2H3 cell model, result in words) was “strong inhibitory effect”, the “Degranulation efficiency (%)” value (compound 0.0390625 μg/mL) was 52.86% and the “Degranulation efficiency (%)” value (compound 0.078125 μg/mL) was 48.53%. For the same compound, the “Degranulation efficiency (%)” value (compound 0.15625 μg/mL) was 38.46%, the “Degranulation efficiency (%)” value (compound 0.3125 μg/mL) was 35.61% and the “Degranulation efficiency (%)” value (compound 0.625 μg/mL) was 24.46%. The “Degranulation efficiency (%)” value (compound 1.25 μg/mL) was 14.29%, the IC50 (Rattus norvegicus, RBL-2H3) was 1.87 µM and the inhibition at 0.0390625 µg/mL [1] was -15.2%. It also gave an inhibition at 0.078125 µg/mL [1] of -3.38%, an inhibition at 0.15625 µg/mL [1] of 24.2% and an inhibition at 0.3125 µg/mL [1] of 32.1%. For the same compound, the inhibition at 0.625 µg/mL [1] was 62.7% and the inhibition at 1.25 µg/mL [1] was 90.6%.
